# Like-named read-outs stand apart in the source and are kept apart here.
# B1: recombinant PYP: holo-photoactive yellow protein formed in vivo in Escherichia coli with TAL, pCL and pyp genes (protein, UniProt P16113 1-125, looked up)
# Photoactive yellow protein: MEHVAFGSEDIENTLAKMDDGQLDGLAFGAIQLDGDGNILQYNAAEGDITGRDPKQVIGKNFFKDVAPCTDSPEFYGKFKEGVASGNLNTMFEYTFDYQMTPTKVKVHMKKALSGDSYWVFVKRV
# modifications: recombinant holo form, expressed in E. coli
# B2: wild-type PYP: wild-type Halorhodospira halophila photoactive yellow protein (protein, UniProt P16113 1-125, looked up)
# Photoactive yellow protein: B1 Photoactive yellow protein
# modifications: holo form with chromophore
# B3: chemically reconstituted PYP: recombinant apo-PYP with the chromophore chemically attached (Genick et al., 1997) (protein, UniProt P16113 1-125, looked up)
# Photoactive yellow protein: B1 Photoactive yellow protein
# modifications: chemically attached chromophore
# Columns and labels:
# [1] = system: tyrosine ammonia lyase (TAL) from Rhodobacter capsulatus; assay type: biochemical; conditions: for pH optimum of activity (TAL with L-tyrosine, PAL with L-phenylalanine): pH 6
# Method: Both activities were followed by the following spectrophotometric assay (adapted from Rösler et al. (1997)): PAL activity was assayed by following cinnamic acid formation at 280 nm using a double beam spectrophotometer (Uvikon, Kontron, Herts, United Kingdom) in 10 mM Tris buffer at 35° C. The pH optimum was determined between the pH values 6-10. The substrate concentrations were varied between 5 mM and 0.2 mM. TAL activity was assayed by monitoring p-hydroxycinnamic acid formation at 310 nm and 35° C. The substrate concentration was varied between 2 mM and 0.01 mM. All reactions were performed in a total volume of 1 ml.
# FIG. 3 presents Lineweaver-Burk plots for the two substrates at their respective pH optimum.
# Since PAL and TAL sequences show significant homology to histidine ammonia lyases (HAL), which are common enzymes in bacteria, we also tested L-histidine as a substrate for the recombinant enzyme.
# [2] = molecular target: T1, PAL/TAL enzyme from the monocot Zea mays (Zea mays, UniProt Q8VXG7); assay: Kinetic parameters of the PAL/TAL enzyme from maize (Rösler et al., 1997); assay type: biochemical; conditions: pH 8.7
# [3] = molecular target: T1, PAL/TAL enzyme from the monocot Zea mays; conditions: pH 8.7; cited from earlier work
# [4] = molecular target: PAL-1 isozyme from parsley (Petroselinum crispum) (Petroselinum crispum, UniProt P24481); conditions: cited from earlier work
# [5] = Laser flash photolysis, photocycle kinetics of PYP; set-up: species or system Halorhodospira halophila; conditions: flash 440 nm, universal buffer pH 8.0
# Method: The laser flash photolysis and spectroscopy apparatus and the methods used for data analysis were as previously described (Meyer et al., 1987). The PYP sample was dialysed against a universal buffer (20 mM MES, 20 mM HEPES, and 20 mM glycine, pH 8.0) prior to the experiment. We used 1 ml samples, with an absorbance at 445 nm of approximately 0.2, for the kinetic measurements. By flashing the PYP sample with laser light of 440 nm, we could determine the kinetics of the light-induced absorbance changes. FIGS. 9a and 9b show the I1→I2 bleach reaction and the I2→P recovery of our in vivo formed holo-PYP. It can be seen that after a flash with 440 nm light, the PYP went through a normal photocycle. […] The rate of recovery was 7.2 s^−1, compared to 6.3 s^−1 for wild-type and chemically reconstituted PYP (Meyer et al., 1987; Genick et al., 1997). […] Since this is different from the 3.4 ms^−1 reported by Genick et al. (1997), we repeated the experiment under our conditions with native PYP and found the rate to be 1.3 ms^−1. This is approximately the same as what we measured with our recombinant PYP.
# [6] = reported by Genick et al. (1997); cited from earlier work
# T1 sequence (Q8VXG7 whole entry): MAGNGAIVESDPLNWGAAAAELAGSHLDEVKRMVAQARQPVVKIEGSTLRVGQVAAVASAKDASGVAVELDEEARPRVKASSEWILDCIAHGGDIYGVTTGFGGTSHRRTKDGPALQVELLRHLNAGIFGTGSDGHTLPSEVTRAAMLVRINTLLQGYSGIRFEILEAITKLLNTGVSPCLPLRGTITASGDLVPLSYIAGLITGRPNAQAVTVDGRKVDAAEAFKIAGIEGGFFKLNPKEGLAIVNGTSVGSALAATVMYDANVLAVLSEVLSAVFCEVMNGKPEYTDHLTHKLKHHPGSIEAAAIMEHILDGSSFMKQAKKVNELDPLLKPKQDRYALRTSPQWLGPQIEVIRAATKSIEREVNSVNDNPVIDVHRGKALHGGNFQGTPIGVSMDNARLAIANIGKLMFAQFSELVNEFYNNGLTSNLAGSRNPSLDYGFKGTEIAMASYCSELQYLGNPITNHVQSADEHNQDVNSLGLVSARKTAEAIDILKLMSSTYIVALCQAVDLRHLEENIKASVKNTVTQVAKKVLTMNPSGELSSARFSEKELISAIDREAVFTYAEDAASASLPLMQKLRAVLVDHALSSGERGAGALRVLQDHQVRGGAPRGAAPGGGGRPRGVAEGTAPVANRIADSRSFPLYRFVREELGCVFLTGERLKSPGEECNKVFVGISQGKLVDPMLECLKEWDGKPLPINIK
molecule,measurement,setting,value
N[C@@H](Cc1c[nH]c2ccccc12)C(=O)O [L-tryptophan],activity as substrate,[1]; up to a 5 mM concentration,no activity was detected
"N[C@@H](Cc1ccccc1)C(=O)O [L-Phenylalanine, L-phenylalanine]",fold higher Km for L-Phe than for L-Tyr,[1],80 fold
same,"pH optimum of activity (TAL with L-tyrosine, PAL with L-phenylalanine)",[1],9.4
same,fold higher Km value for L-Phe compared to L-Tyr,[2],15 fold
same,Km,[3],270 µM
same,kcat,[3],10 s⁻¹
same,Km,[4],17.2 µM
same,kcat,[4],22 s⁻¹
N[C@@H](Cc1c[nH]cn1)C(=O)O [L-histidine],activity as substrate (histidine ammonia lyase activity),[1]; spectrophotometric assay of Schwede et al. (1999),could not detect any activity
"N[C@@H](Cc1ccc(O)cc1)C(=O)O [L-Tyrosine, L-tyrosine]","pH optimum of activity (TAL with L-tyrosine, PAL with L-phenylalanine)",[1],8.5
same,Km,[3],19 µM
same,kcat,[3],0.9 s⁻¹
same,kcat,[4],0.3 s⁻¹
B1,rate constant of the bleach (I1→I2),[5],1.6 ms^−1
B2,rate constant of the bleach (I1→I2),[5],1.3 ms^−1
B3,rate constant of the bleach (I1→I2),[6],3.4 ms^−1

# Source: patent US7241611B2, “Methods for synthesis of holo-photoactive yellow protein” (Universiteit Gent, priority 2002, dated 2007)
